# According to ChEMBL document CHEMBL5365436, “Novel Amphibian Bowman-Birk-Like Inhibitor with Antioxidant and Anticoagulant Effects Ameliorates Pancreatitis Symptoms in Mice” (J Med Chem, 2023):
# The source made the active and inactive calls. No cut-off for these calls is given here. Positions of bridges follow the written chain, without caps; N, C: chain ends. Residues, ends and D or L forms follow the SMILES beside them.
# What was measured:
# [1] = test system: Mus musculus; assay: Anti-inflammatory activity in L-arginine-induced acute pancreatitis in BALB/c mouse model assessed as reduction in serum amylase at 50 mg/kg preincubated with compound followed by L-Arg induction for 1 hr and measured after 24 hrs by automatic analyzer; format: functional, organism-based; conditions: time 25.0 hrs
# [2] = test system: Mus musculus; assay: Anti-inflammatory activity in L-arginine-induced acute pancreatitis in BALB/c mouse model assessed as reduction in IL-6 level at 50 mg/kg preincubated with compound followed by L-Arg induction for 1 hr and measured after 24 hrs by ELISA method; format: functional, organism-based; conditions: time 25.0 hrs
# [3] = test system: Mus musculus; assay: Anti-inflammatory activity in L-arginine-induced acute pancreatitis in BALB/c mouse model assessed as inhibition of trypsin activity at 50 mg/kg preincubated with compound followed by L-Arg induction for 1 hr and measured after 24 hrs; format: functional, organism-based; conditions: time 25.0 hrs
# [4] = test system: Mus musculus; assay: Antithrombotic activity FeCl3-induced thrombosis in BALB/c mouse model assessed as carotid artery blood flow time at 5 mg/kg preincubated with compound followed by FeCl3 treatment for 1 hr and measured upto 12 mins by laser perfusion imaging method; format: functional; conditions: time 72 min, 1.2 h
# [5] = species on record: Mus musculus; assay: Anti-inflammatory activity in L-arginine-induced acute pancreatitis in BALB/c mouse model assessed as reduction in serum amylase preincubated with compound followed by L-Arg induction for 1 hr and measured after 24 hrs by automatic analyzer; format: functional, organism-based; conditions: dose 1.25-5 mg/kg, time 25.0 hrs
# [6] = species on record: Mus musculus; assay: Anti-inflammatory activity in L-arginine-induced acute pancreatitis in BALB/c mouse model assessed as reduction in IL-6 level preincubated with compound followed by L-Arg induction for 1 hr and measured after 24 hrs by ELISA method; format: functional, organism-based; conditions: dose 1.25-5 mg/kg, time 25.0 hrs
# [7] = test system: Mus musculus; assay: Anti-inflammatory activity in L-arginine-induced acute pancreatitis in BALB/c mouse model assessed as improvement in neutrophil level in spleen at 1.25 to 5 mg/kg preincubated with compound followed by L-Arg induction for 1 hr and measured after 24 hrs by flow cytometry analysis; format: functional, organism-based; conditions: dose 1.25-5 mg/kg, time 25.0 hrs
# [8] = species on record: Mus musculus; assay: Anti-inflammatory activity in L-arginine-induced acute pancreatitis in BALB/c mouse model assessed as inhibition of increase in myeloperoxidase activity at preincubated with compound followed by L-Arg induction for 1 hr and measured after 24 hrs; format: functional, organism-based; conditions: dose 1.25-5 mg/kg, time 25.0 hrs
# [9] = test system: Mus musculus; assay: Anti-inflammatory activity in L-arginine-induced acute pancreatitis in BALB/c mouse model assessed as inhibition of trypsin activity at 1.25 to 5 mg/kg preincubated with compound followed by L-Arg induction for 1 hr and measured after 24 hrs; format: functional, organism-based; conditions: dose 1.25-5 mg/kg, time 25.0 hrs
# [10] = test system: Mus musculus; assay: Anti-inflammatory activity in L-arginine-induced acute pancreatitis in BALB/c mouse model assessed as decrease in neutrophil to lymphocyte ratio at 5 mg/kg preincubated with compound followed by L-Arg induction for 1 hr and measured after 24 hrs; format: functional, organism-based; conditions: time 25.0 hrs
# [11] = test system: Mus musculus; assay: Anti-inflammatory activity in L-arginine-induced acute pancreatitis in BALB/c mouse model assessed as decrease in platelet to lymphocyte ratio at 5 mg/kg preincubated with compound followed by L-Arg induction for 1 hr and measured after 24 hrs; format: functional, organism-based; conditions: time 25.0 hrs
# [12] = test system: Mus musculus; assay: Anti-inflammatory activity in L-arginine-induced acute pancreatitis in BALB/c mouse model assessed as reduction in neutrophil infiltration in pancreas at 1.25 to 5 mg/kg preincubated with compound followed by L-Arg induction for 1 hr and measured after 24 hrs by H and E staining based analysis; format: functional, organism-based; conditions: dose 1.25-5 mg/kg, time 25.0 hrs
# [13] = test system: Mus musculus; assay: Anti-inflammatory activity in L-arginine-induced acute pancreatitis in BALB/c mouse model assessed as reduction in interstitial edema in pancreas at 1.25 to 5 mg/kg preincubated with compound followed by L-Arg induction for 1 hr and measured after 24 hrs by H and E staining based analysis; format: functional, organism-based; conditions: dose 1.25-5 mg/kg, time 25.0 hrs
# [14] = test system: Mus musculus; assay: Anti-inflammatory activity in L-arginine-induced acute pancreatitis in BALB/c mouse model assessed as reduction in hemorrhage in pancreas at 1.25 to 5 mg/kg preincubated with compound followed by L-Arg induction for 1 hr and measured after 24 hrs by H and E staining based analysis; format: functional, organism-based; conditions: dose 1.25-5 mg/kg, time 25.0 hrs
# [15] = test system: Mus musculus; assay: Anti-inflammatory activity in L-arginine-induced acute pancreatitis in BALB/c mouse model assessed as reduction in necrosis in pancreas at 1.25 to 5 mg/kg preincubated with compound followed by L-Arg induction for 1 hr and measured after 24 hrs by H and E staining based analysis; format: functional, organism-based; conditions: dose 1.25-5 mg/kg, time 25.0 hrs
# [16] = test system: Mus musculus; assay: Anti-inflammatory activity in L-arginine-induced acute pancreatitis in BALB/c mouse model assessed as reduction in acinar cell necrosis in pancreas at 1.25 to 5 mg/kg preincubated with compound followed by L-Arg induction for 1 hr and measured after 24 hrs by H and E staining based analysis; format: functional, organism-based; conditions: dose 1.25-5 mg/kg, time 25.0 hrs
# [17] = molecular target: T1, Trypsin (Homo sapiens, UniProt P07477+P07478+P35030); assay: Binding affinity to trypsin (unknown origin) assessed as inhibition constant by Lineweaver-Burk plot analysis; format: protein assay
# [18] = molecular target: T1, Trypsin; assay: Binding affinity to trypsin (unknown origin) assessed as dissociation constant by surface plasmon resonance imaging method; format: protein assay
# [19] = Antioxidant activity assessed as DPPH radical scavenging activity at 40 uM measured at 10 min by microplate reader analysis relative to control; format: functional
# [20] = Antioxidant activity assessed as ABTS radical scavenging activity at 40 uM measured at 10 min by microplate reader analysis relative to control; format: functional
# [21] = Antioxidant activity assessed as ferric reducing capacity at 40 uM measured at 10 min by FRAP assay (reference value: 20.87 %); format: functional; set-up: scale not given: the % may be the effect or the level left
# [22] = test system: Mus musculus; assay: Antioxidant activity in L-arginine-induced acute pancreatitis in BALB/c mouse model assessed as reversal of SOD activity at 1.25 to 5 mg/kg by DCFH-DA staining method; format: functional, organism-based; conditions: dose 1.25-5 mg/kg
# [23] = test system: Mus musculus; assay: Antioxidant activity in L-arginine-induced acute pancreatitis in BALB/c mouse model assessed as reversal of GSH level at 1.25 to 5 mg/kg by DCFH-DA staining method; format: functional, organism-based; conditions: dose 1.25-5 mg/kg
# [24] = test system: Mus musculus; assay: Antioxidant activity in L-arginine-induced acute pancreatitis in BALB/c mouse model assessed as decrease in MDA level at 1.25 to 5 mg/kg by DCFH-DA staining method; format: functional, organism-based; conditions: dose 1.25-5 mg/kg
# [25] = test system: Mus musculus; assay: Antioxidant activity in L-arginine-induced acute pancreatitis in BALB/c mouse model assessed as decrease in ROS accumulation at 1.25 to 5 mg/kg by DCFH-DA staining method; format: functional, organism-based; conditions: dose 1.25-5 mg/kg
# [26] = test system: Mus musculus; assay: Antithrombotic activity in L-arginine-induced acute pancreatitis in BALB/c mouse model assessed as reduction in thrombosis by measuring fluorescence intensity at 5 mg/kg preincubated with compound followed by L-Arg induction for 1 hr and measured after 24 hrs by imaging based analysis (reference value: 24497.7); format: functional; conditions: time 25 hrs
# [27] = molecular target: T1, Trypsin; assay: Inhibition of trypsin (unknown origin) assessed as inhibition of casein hydrolysis using S2238 as chromogenic substrate preincubated for 5 mins followed by substrate addition and measured after 11 mins by absorbance based analysis; format: protein assay; conditions: dose 0.3125-10 µM, time 16.0 min
# [28] = species on record: Mus musculus; assay: Antithrombotic activity in L-arginine-induced acute pancreatitis in BALB/c mouse model assessed as prolongation of plasma recalcification time preincubated with compound followed by L-Arg induction for 1 hr and measured after 24 hrs by fluorescence based analysis; format: functional, organism-based; conditions: dose 0.1-50 µM, time 25.0 hrs
# [29] = species on record: Mus musculus; assay: Antithrombotic activity in L-arginine-induced acute pancreatitis in BALB/c mouse model assessed as inhibition of thrombin induced platelet aggregation preincubated with compound followed by L-Arg induction for 1 hr and measured after 24 hrs by fluorescence based analysis; format: functional, organism-based; conditions: dose 12.5-50 µM, time 25.0 hrs
smiles,measurement,setting,value
CC(=O)N[C@@H](CS)C(=O)O,Activity,[1],Active
same,Activity,[2],Active
same,Activity,[3],Active
CC(C)C[C@H](NC(=O)[C@@H]1CSSC[C@H](NC(=O)CNC(=O)[C@H](CO)NC(=O)[C@H](CC(C)C)NC(=O)[C@@H](N)CO)C(=O)N[C@@H](Cc2c[nH]c3ccccc23)C(=O)N[C@@H]([C@@H](C)O)C(=O)N[C@@H](CCCCN)C(=O)N[C@@H](CO)C(=O)N[C@@H](Cc2ccccc2)C(=O)N2CCC[C@H]2C(=O)N[C@@H](CCCNC(=N)N)C(=O)N[C@@H](CCCCN)C(=O)N2CCC[C@H]2C(=O)N1)C(=O)N[C@@H](CCCNC(=N)N)C(=O)O (H-SLSGCWTKSFPRKPCLR-OH; disulfide 5-15),Time,[4],12.46 min
same,Activity,[5],Dose-Dependent Effect
same,Activity,[6],Dose-Dependent Effect
same,Activity,[7],Active
same,Activity,[8],Dose-Dependent Effect
same,Activity,[9],Active
same,Activity,[10],Active
same,Activity,[11],Active
same,Activity,[12],Active
same,Activity,[13],Active
same,Activity,[14],Active
same,Activity,[15],Active
same,Activity,[16],Active
same,Ki,[17],2660 nM
same,Kd,[18],1930 nM
same,Activity,[19],33.1%
same,Activity,[20],58.8%
same,Activity,[21],66.5%
same,Activity,[22],Active
same,Activity,[23],Active
same,Activity,[24],Active
same,Activity,[25],Active
same,Flu intensity,[26],14936.4
same,inhibition,[27],Dose-Dependent Effect
same,Activity,[28],Dose-Dependent Effect
same,Activity,[29],Dose-Dependent Effect
